In paper PMC10051705, “Leishmanicidal Activity of Guanidine Derivatives against Leishmania infantum” (Tropical Medicine and Infectious Disease, 2023):

Assays:
[1] = tested on: L. infantum promastigotes; assay: promastigote growth inhibition assay (MTT); assay type: cell-based; conditions: Leishmania infantum, 72 h, 26 °C
Description: The promastigote forms of Leishmania (Leishmania) infantum [IOC/L0579(MHOM/BR/1974/PP75)] were cultured in Schneider’s medium, pH 7.0, supplemented with 20% heat-inactivated fetal bovine serum (FBS), 2% male human urine, 100 U/mL of penicillin, and 100 mg/L of streptomycin, and the parasites were maintained at 26 °C. The procedure to obtain the extracellular axenic amastigote form of L. infantum was based on methods previously described that were modified using a Schneider medium readjusted to pH 5.5 at 37 °C. The culture of promastigote forms in the stationary phase was centrifuged, and the medium of these cells was replaced and differentiated into axenic amastigotes by temperature and medium pH changes. Parasites were maintained in culture for no more than 20 passages.
The promastigote growth inhibition assay was performed as previously described. Promastigotes were harvested during the exponential growth phase. They were incubated in the presence and absence of several concentrations of LQOFG-2, LQOFG-6, LQOFG-7 (500 to 7.8 µM), and AmB (10 to 0.078 µM) as the positive control. The plate was incubated at 26 °C for 72 h in a biological oxygen demand (B.O.D.) incubator using a Schneider’s medium (Schneider’s Insect Medium 24.5 g/L; L-glutamine 1.8 g/L; glucose 2 g/L and sodium bicarbonate 0.4 g/L; Sigma-Aldrich—St. Louis—USA) supplemented. The growth inhibition was evaluated using an MTT assay kit (Amresco, Solon, OH, USA) according to the manufacturer’s protocol. After 4 h of incubation, 10% sodium dodecyl sulfate was added to dissolve the formazan crystals. The absorbance (540 nm) was measured using a plate reader (Biosystems model ELx800; Curitiba, PR, Brazil). […] Three independent experiments we performed in triplicate.

[2] = in vitro cytotoxicity in PBMC (MTT); assay type: cell-based, human; conditions: both sexes, human, peripheral blood mononuclear cells (PBMCs), human PBMC, 24 h, MTT
Description: (§1) In vitro cytotoxicity was evaluated using peripheral blood mononuclear cells (PBMCs) collected from three healthy volunteers (2 males, mean age 33; and 1 person). PBMCs were separated by density gradient using Ficoll Paque PLUS (GE Healthcare, USA), pelleted by centrifugation (400× g for 40 min), and resuspended in RPMI 1640 medium, then supplemented with 10% fetal bovine serum and 1% antibiotic solution (penicillin 5000 Units/mL + streptomycin 5000 μg/mL). After 24 h of treatment, cell viability was evaluated by the modified colorimetric method based on the tetrazolium dye MTT (3-(4,5-dimethylthiazol-2-yl)-2,5- diphenyltetrazolium bromide). The MTT assay was used for in vitro cytotoxicity as previously described with the following modifications: cells were exposed to serially diluted concentrations of LQOFG-2, LQOFG-6, LQOFG-7 (1000 to 7.8 µM), and AmB (100 to 0.78 µM). The plates were kept at 37 °C for 24 h. MTT (5 mg/mL) was added and incubated for 4 h at 37 °C, after which the plates were centrifuged, the supernatant was discarded, and DMSO was added, leaving the plates under stirring to solubilize the formazan salts. Absorbance was measured at 540 nm using a plate reader (ELx800; Curitiba, PR, Brazil). The mean percentage of viable cells was calculated relative to the untreated control.

[3] = tested on: peripheral blood mononuclear cells (PBMCs); assay: in vitro cytotoxicity in PBMC (MTT); assay type: cell-based, human; conditions: human PBMC, 24 h, MTT
Description: as §1

IC50 [1]	SMILES	CC50 at 24 h [2]	CC50 [3]
1.5 ± 0.23 µM	C[C@@H]1[C@H](O)[C@@H](C)/C=C/C=C/C=C/C=C/C=C/C=C/C=C/[C@H](O[C@@H]2O[C@H](C)[C@@H](O)[C@H](N)[C@@H]2O)C[C@@H]2O[C@](O)(C[C@@H](O)C[C@@H](O)[C@H](O)CC[C@@H](O)C[C@@H](O)CC(=O)O[C@H]1C)C[C@H](O)[C@H]2C(=O)O [Amphotericin B, reference compound]	53.9 ± 3.59 µM	53.8 ± 3.59 µM
23.6 ± 0.64 µM	O=C(/N=C(/NCc1ccccc1)Nc1ccc(I)cc1)c1ccccc1 [LQOFG-7, (Z)-N-((benzylamine)((4-iodophenyl)amino)methylene)benzamide]	745.5 ± 3.58 µM	
